Measurements from patent publication US10875875B2, “Propionic acid derivatives and methods of use thereof” (Aviara Pharmaceuticals, Inc., priority 2017, dated 2020).

Molecular target: α4β1 (Homo sapiens, UniProt P05556+P13612)
Experiment: α4β1 integrin inhibition, IC50
Type: binding
Details: integrin not named at the place; read-out: IC50

α4β1, sequence (P13612 34-1032): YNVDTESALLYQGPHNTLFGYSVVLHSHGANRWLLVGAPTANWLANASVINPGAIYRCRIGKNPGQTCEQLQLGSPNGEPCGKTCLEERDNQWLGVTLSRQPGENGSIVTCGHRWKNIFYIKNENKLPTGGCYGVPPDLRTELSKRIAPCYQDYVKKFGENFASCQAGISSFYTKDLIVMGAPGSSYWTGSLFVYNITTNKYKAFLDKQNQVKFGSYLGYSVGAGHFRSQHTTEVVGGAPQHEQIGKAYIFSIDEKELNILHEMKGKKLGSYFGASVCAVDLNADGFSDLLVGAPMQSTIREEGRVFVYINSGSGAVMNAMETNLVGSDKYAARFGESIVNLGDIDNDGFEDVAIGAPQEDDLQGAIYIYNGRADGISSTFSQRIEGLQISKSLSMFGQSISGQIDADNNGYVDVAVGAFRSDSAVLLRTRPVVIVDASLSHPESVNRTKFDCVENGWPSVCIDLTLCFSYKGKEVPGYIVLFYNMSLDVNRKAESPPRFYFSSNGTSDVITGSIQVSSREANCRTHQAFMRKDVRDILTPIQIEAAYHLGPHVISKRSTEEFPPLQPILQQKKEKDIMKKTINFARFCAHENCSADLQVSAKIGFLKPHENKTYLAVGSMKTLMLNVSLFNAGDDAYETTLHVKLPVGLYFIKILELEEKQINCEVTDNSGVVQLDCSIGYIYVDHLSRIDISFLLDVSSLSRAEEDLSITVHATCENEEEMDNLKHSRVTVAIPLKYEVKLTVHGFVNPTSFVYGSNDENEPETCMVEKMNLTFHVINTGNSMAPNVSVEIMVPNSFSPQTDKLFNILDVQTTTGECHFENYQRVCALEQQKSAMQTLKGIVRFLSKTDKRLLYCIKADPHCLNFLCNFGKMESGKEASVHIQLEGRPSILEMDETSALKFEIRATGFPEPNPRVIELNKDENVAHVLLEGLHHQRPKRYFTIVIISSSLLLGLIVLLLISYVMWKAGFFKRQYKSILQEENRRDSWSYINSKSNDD
α4β1, sequence (P05556 21-798): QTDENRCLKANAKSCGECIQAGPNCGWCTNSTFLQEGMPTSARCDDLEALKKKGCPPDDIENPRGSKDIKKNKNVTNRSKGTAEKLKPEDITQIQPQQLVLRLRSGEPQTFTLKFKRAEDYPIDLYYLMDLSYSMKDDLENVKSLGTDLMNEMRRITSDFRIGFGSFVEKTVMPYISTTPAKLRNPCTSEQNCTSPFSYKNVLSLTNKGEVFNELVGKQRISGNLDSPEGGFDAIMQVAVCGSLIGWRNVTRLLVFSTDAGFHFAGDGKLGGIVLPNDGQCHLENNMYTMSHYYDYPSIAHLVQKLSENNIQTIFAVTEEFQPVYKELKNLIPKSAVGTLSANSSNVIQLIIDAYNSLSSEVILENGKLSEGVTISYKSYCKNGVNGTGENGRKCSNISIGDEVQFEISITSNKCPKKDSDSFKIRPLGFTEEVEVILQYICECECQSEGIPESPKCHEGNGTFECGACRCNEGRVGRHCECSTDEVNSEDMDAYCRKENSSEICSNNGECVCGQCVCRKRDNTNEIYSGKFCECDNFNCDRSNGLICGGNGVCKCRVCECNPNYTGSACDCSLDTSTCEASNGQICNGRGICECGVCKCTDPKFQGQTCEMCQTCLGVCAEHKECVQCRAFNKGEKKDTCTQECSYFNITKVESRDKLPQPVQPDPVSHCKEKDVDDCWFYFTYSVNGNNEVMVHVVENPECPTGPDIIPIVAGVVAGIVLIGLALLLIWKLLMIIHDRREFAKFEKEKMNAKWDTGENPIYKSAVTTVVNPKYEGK

IC50	Structure (SMILES)
< 0.02 µM	Cc1cn(C)c(=O)c(NC(=O)N[C@@H](CC(=O)O)c2cccc(-c3ccccc3)c2)c1O [1-437, sodium (S)-3-(biphenyl-3-yl)-3-(3-(1,5-dimethyl-4-oxido-2-oxo-1,2-dihydropyridin-3-yl)ureido)propanoate]

Same assay, conditions: read-out: α4β1 IC50

Structure (SMILES)	IC50
Cc1cn(C)c(=O)c(NC(=O)N[C@@H](CC(=O)O)c2cccc(-c3c(F)cccc3F)c2)c1O [1-464, sodium (S)-3-(2′,6′-difluorobiphenyl-3-yl)-3-(3-(1,5-dimethyl-4-oxido-2-oxo-1,2-di hydropyridin-3-yl)ureido)propanoate]	< 0.02 µM
Cc1ccc([C@H](CC(=O)O)NC(=O)Nc2c(O)c(C)cn(C)c2=O)cc1-c1ccccc1 [1-448, sodium (S)-3-(3-(1,5-dimethyl-4-oxido-2-oxo-1,2-dihydropyridin-3-yl)ureido)-3-(6-methylbiphenyl-3-yl)propanoate]	< 0.2 µM
Cc1cn(C)c(=O)c(NC(=O)NC(CC(=O)O)c2cccc(-c3cccc(Cl)c3Cl)c2)c1O (centres unmarked) [1-485, sodium 3-(2′,3′-dichlorobiphenyl-3-yl)-3-(3-(1,5-dimethyl-4-oxido-2-oxo-1,2-dihydropyridin-3-yl)ureido)propanoate]	< 0.2 µM
Cc1cn(C)c(=O)c(NC(=O)N[C@@H](CC(=O)O)c2cccc(-c3ccc(F)c(F)c3)c2)c1O [1-458, sodium (S)-3-(3′,4′-difluorobiphenyl-3-yl)-3-(3-(1,5-dimethyl-4-oxido-2-oxo-1,2-di hydropyridin-3-yl)ureido)propanoate]	< 0.02 µM
Cc1ccccc1-c1cccc([C@H](CC(=O)O)NC(=O)Nc2c(O)c(C)cn(C)c2=O)c1 [1-440, sodium (S)-3-(3-(1,5-dimethyl-4-oxido-2-oxo-1,2-dihydropyridin-3-yl)ureido)-3-(2′-methylbiphenyl-3-yl)propanoate]	< 0.2 µM
Cc1cn(C)c(=O)c(NC(=O)NC(CC(=O)O)c2cccc(-n3cccc3)c2)c1O (centres unmarked) [1-445, sodium 3-(3-(1H-pyrrol-1-yl)phenyl)-3-(3-(1,5-dimethyl-4-oxido-2-oxo-1,2-dihydropyridin-3-yl)ureido)propanoate]	< 0.2 µM
Cc1cn(C)c(=O)c(NC(=O)N[C@@H](CC(=O)O)c2cccc(-c3ccccc3OC(F)(F)F)c2)c1O [1-467, sodium (S)-3-(3-(1,5-dimethyl-4-oxido-2-oxo-1,2-dihydropyridin-3-yl)ureido)-3-(2′-(trifluoromethoxy)biphenyl-3-yl)propanoate]	< 0.2 µM
COc1ccccc1-c1cccc([C@H](CC(=O)O)NC(=O)Nc2c(O)c(C)cn(C)c2=O)c1 [1-456, sodium (S)-3-(3-(1,5-dimethyl-4-oxido-2-oxo-1,2-dihydropyridin-3-yl)ureido)-3-(2′-methoxybiphenyl-3-yl)propanoate]	< 0.2 µM
Cc1cccc(-c2cccc([C@H](CC(=O)O)NC(=O)Nc3c(O)c(C)cn(C)c3=O)c2)c1C [1-462, sodium (S)-3-(3-(1,5-dimethyl-4-oxido-2-oxo-1,2-dihydropyridin-3-yl)ureido)-3-(2′,3′-dimethylbiphenyl-3-yl)propanoate]	< 0.2 µM
Cc1cn(C)c(=O)c(NC(=O)N[C@@H](CC(=O)O)c2ccc(-c3ccccc3)o2)c1O [1-482, sodium (S)-3-(3-(1,5-dimethyl-4-oxido-2-oxo-1,2-dihydropyridin-3-yl)ureido)-3-(5-phenylfuran-2-yl)propanoate]	< 0.2 µM
COc1ccc([C@H](CC(=O)O)NC(=O)Nc2c(O)c(C)cn(C)c2=O)cc1-c1ccccc1 [1-449, sodium (S)-3-(3-(1,5-dimethyl-4-oxido-2-oxo-1,2-dihydropyridin-3-yl)ureido)-3-(6-methoxybiphenyl-3-yl)propanoate]	< 0.2 µM
Cc1cn(C)c(=O)c(NC(=O)NC(CC(=O)O)c2cccc(-c3cncnc3)c2)c1O (centres unmarked) [1-478, sodium 3-(3-(1,5-dimethyl-4-oxido-2-oxo-1,2-dihydropyridin-3-yl)ureido)-3-(3-(pyrimidin-5-yl)phenyl)propanoate]	< 0.2 µM

More lines, now with the values ahead:

IC50	Structure (SMILES)
< 0.2 µM	Cc1ccc(-c2cccc([C@H](CC(=O)O)NC(=O)Nc3c(O)c(C)cn(C)c3=O)c2)cc1C [1-495, sodium (S)-3-(3-(1,5-dimethyl-4-oxido-2-oxo-1,2-dihydropyridin-3-yl)ureido)-3-(3′,4′-dimethylbiphenyl-3-yl)propanoate]
< 0.2 µM	Cn1ccc(O)c(NC(=O)N[C@@H](CC(=O)O)c2ccc(-c3cccc(Cl)c3)s2)c1=O [1-619, sodium (S)-3-(5-(3-chlorophenyl)thiophen-2-yl)-3-(3-(1-methyl-4-oxido-2-oxo-1,2-dihydropyridin-3-yl)ureido)propanoate]
< 0.02 µM	COc1cccc(-c2cc([C@H](CC(=O)O)NC(=O)Nc3c(O)cc(C)n(C)c3=O)ccc2OC)c1 [1-551, sodium (S)-3-(3′,6-dimethoxybiphenyl-3-yl)-3-(3-(1,6-dimethyl-4-oxido-2-oxo-1,2-dihydropyridin-3-yl)ureido)propanoate]
< 0.02 µM	Cc1cn(C)c(=O)c(NC(=O)N[C@@H](CC(=O)O)c2cccc(-c3ccc4c(c3)OCO4)c2)c1O [1-517, sodium (S)-3-(3-(benzo[d][1,3]dioxol-5-yl)phenyl)-3-(3-(1,5-dimethyl-4-oxido-2-oxo-1,2-dihydropyridin-3-yl)ureido)propanoate]
< 0.02 µM	COc1cccc(-c2csc([C@H](CC(=O)O)NC(=O)Nc3c(O)ccn(C)c3=O)c2)c1 [1-528, sodium (S)-3-(4-(3-methoxyphenyl)thiophen-2-yl)-3-(3-(1-methyl-4-oxido-2-oxo-1,2-dihydropyridin-3-yl)ureido)propanoate]
< 0.02 µM	Cc1cccc(C)c1-c1ccc(F)c([C@H](CC(=O)O)NC(=O)Nc2c(O)cc(C)n(C)c2=O)c1 [1-589, sodium (S)-3-(3-(1,6-dimethyl-4-oxido-2-oxo-1,2-dihydropyridin-3-yl)ureido)-3-(4-fluoro-2′,6′-dimethylbiphenyl-3-yl)propanoate]
< 0.02 µM	Cn1ccc(O)c(NC(=O)N[C@@H](CC(=O)O)c2cc(F)cc(-c3ccc(F)cc3F)c2)c1=O [1-633, sodium (S)-3-(3-(1-methyl-4-oxido-2-oxo-1,2-dihydropyridin-3-yl)ureido)-3-(2′,4′,5-trifluorobiphenyl-3-yl)propanoate]
< 0.02 µM	COc1ccc([C@H](CC(=O)O)NC(=O)Nc2c(O)ccn(C)c2=O)cc1-c1cccc(Cl)c1 [1-534, sodium (S)-3-(3′-chloro-6-methoxybiphenyl-3-yl)-3-(3-(1-methyl-4-oxido-2-oxo-1,2-dihydropyridin-3-yl)ureido)propanoate]
< 0.02 µM	COc1ccc([C@H](CC(=O)O)NC(=O)Nc2c(O)cc(C)n(C)c2=O)cc1-c1cccc(OC(F)(F)F)c1 [1-554, sodium (S)-3-(3-(1,6-dimethyl-4-oxido-2-oxo-1,2-dihydropyridin-3-yl)ureido)-3-(6-methoxy-3′-(trifluoromethoxy)biphenyl-3-yl)propanoate]
< 0.02 µM	COc1cc(-c2ccc(F)cc2F)cc([C@H](CC(=O)O)NC(=O)Nc2c(O)ccn(C)c2=O)c1 [1-566, sodium (S)-3-(2′,4′-difluoro-5-methoxybiphenyl-3-yl)-3-(3-(1-methyl-4-oxido-2-oxo-1,2-dihydropyridin-3-yl)ureido)propanoate]
< 0.02 µM	Cn1ccc(O)c(NC(=O)N[C@@H](CC(=O)O)c2cccc(-c3ccoc3)c2)c1=O [1-559, sodium (S)-3-(3-(furan-3-yl)phenyl)-3-(3-(1-methyl-4-oxido-2-oxo-1,2-dihydropyridin-3-yl)ureido)propanoate]
< 0.02 µM	Cn1ccc(O)c(NC(=O)N[C@@H](CC(=O)O)c2cccc(-c3ccc(OC(F)(F)F)cc3)c2)c1=O [1-510, sodium (S)-3-(3-(1-methyl-4-oxido-2-oxo-1,2-dihydropyridin-3-yl)ureido)-3-(4′-(trifluoromethoxy)biphenyl-3-yl)propanoate]
< 0.02 µM	COc1cccc(-c2cc(OC)cc([C@H](CC(=O)O)NC(=O)Nc3c(O)ccn(C)c3=O)c2)c1 [1-564, sodium (S)-3-(3′,5-dimethoxybiphenyl-3-yl)-3-(3-(1-methyl-4-oxido-2-oxo-1,2-dihydropyridin-3-yl)ureido)propanoate]
< 0.02 µM	Cn1ccc(O)c(NC(=O)N[C@@H](CC(=O)O)c2cccc(-n3ncc4ccccc43)c2)c1=O [1-518, sodium (S)-3-(3-(1H-indazol-1-yl)phenyl)-3-(3-(1-methyl-4-oxido-2-oxo-1,2-dihydropyridin-3-yl)ureido)propanoate]
< 0.02 µM	Cc1cc(-c2cccc(OC(F)(F)F)c2)cc([C@H](CC(=O)O)NC(=O)Nc2c(O)cc(C)n(C)c2=O)c1 [1-631, sodium (S)-3-(3-(1,6-dimethyl-4-oxido-2-oxo-1,2-dihydropyridin-3-yl)ureido)-3-(5-methyl-3′-(trifluoromethoxy)biphenyl-3-yl)propanoate]
< 0.02 µM	COc1cccc(-c2ccc(F)c([C@H](CC(=O)O)NC(=O)Nc3c(O)cc(C)n(C)c3=O)c2)c1 [1-603, sodium (S)-3-(3-(1,6-dimethyl-4-oxido-2-oxo-1,2-dihydropyridin-3-yl)ureido)-3-(4-fluoro-3′-methoxybiphenyl-3-yl)propanoate]
< 0.02 µM	COc1cccc(-c2ccc(F)c([C@H](CC(=O)O)NC(=O)Nc3c(O)ccn(C)c3=O)c2)c1 [1-593, sodium (S)-3-(4-fluoro-3′-methoxybiphenyl-3-yl)-3-(3-(1-methyl-4-oxido-2-oxo-1,2-dihydropyridin-3-yl)ureido)propanoate]
< 0.2 µM	Cc1cn(C)c(=O)c(NC(=O)NC(CC(=O)O)c2ccc(OCC(F)(F)F)c(-c3ccccc3)c2)c1O (centres unmarked) [1-491, sodium 3-(3-(1,5-dimethyl-4-oxido-2-oxo-1,2-dihydropyridin-3-yl)ureido)-3-(6-(2,2,2-trifluoroethoxy)biphenyl-3-yl)propanoate]
< 0.02 µM	COc1cccc(-c2cc([C@H](CC(=O)O)NC(=O)Nc3c(O)ccn(C)c3=O)ccc2F)c1 [1-547, sodium (S)-3-(6-fluoro-3′-methoxybiphenyl-3-yl)-3-(3-(1-methyl-4-oxido-2-oxo-1,2-dihydropyridin-3-yl)ureido)propanoate]
